In US9464056B2, “Fungicidal 4-methylanilino pyrazoles” (E. I. DU PONT DE NEMOURS AND COMPANY, priority 2012, dated 2016):

Columns and labels:
Botrytis cinerea = assay: Test A: preventive spray on tomato seedlings, Botrytis cinerea (tomato Botrytis), visual disease rating; format: in vivo; conditions: 100 = 100% disease control, 0 = no disease control relative to controls
Source text: General protocol for preparing test suspensions for Tests A-H: the test compounds were first dissolved in acetone in an amount equal to 3% of the final volume and then suspended at the desired concentration (in ppm) in acetone and purified water (50/50 mix by volume) containing 250 ppm of the surfactant Trem® 014 (polyhydric alcohol esters). The resulting test suspensions were then used in Tests A-F. Spraying a 40 ppm test suspension to the point of run-off on the test plants was the equivalent of a rate of 160 g/ha. Unless otherwise indicated, the rating values indicate a 40 ppm test suspension was used. The test suspension was sprayed to the point of run-off on tomato seedlings. The following day the seedlings were inoculated with a spore suspension of Botrytis cinerea (the causal agent of tomato Botrytis) and incubated in saturated atmosphere at 20° C. for 48 h, and then moved to a growth chamber at 27° C. for 3 days, after which time visual disease ratings were made. Results for Tests A-F are given in Table A. In the Table, a rating of 100 indicates 100% disease control and a rating of 0 indicates no disease control (relative to the controls). A dash (-) indicates no test results.

Alternaria solani = assay: Test B: preventive spray on tomato seedlings, Alternaria solani (tomato early blight), visual disease rating; format: in vivo; conditions: 100 = 100% disease control, 0 = no disease control relative to controls
Source text: General protocol for preparing test suspensions for Tests A-H: the test compounds were first dissolved in acetone in an amount equal to 3% of the final volume and then suspended at the desired concentration (in ppm) in acetone and purified water (50/50 mix by volume) containing 250 ppm of the surfactant Trem® 014 (polyhydric alcohol esters). The resulting test suspensions were then used in Tests A-F. Spraying a 40 ppm test suspension to the point of run-off on the test plants was the equivalent of a rate of 160 g/ha. Unless otherwise indicated, the rating values indicate a 40 ppm test suspension was used. The test suspension was sprayed to the point of run-off on tomato seedlings. The following day the seedlings were inoculated with a spore suspension of Alternaria solani (the causal agent of tomato early blight) and incubated in a saturated atmosphere at 27° C. for 48 h, and then moved to a growth chamber at 24° C. for 5 days, after which time visual disease ratings were made. Results for Tests A-F are given in Table A. In the Table, a rating of 100 indicates 100% disease control and a rating of 0 indicates no disease control (relative to the controls). A dash (-) indicates no test results.

Septoria nodorum = assay: Test C: preventive spray on wheat seedlings, Septoria nodorum (Septoria glume blotch), visual disease rating; format: in vivo; conditions: Parastagonospora nodorum, topical, 264 h, 100 = 100% disease control, 0 = no disease control relative to controls
Source text: (§1) General protocol for preparing test suspensions for Tests A-H: the test compounds were first dissolved in acetone in an amount equal to 3% of the final volume and then suspended at the desired concentration (in ppm) in acetone and purified water (50/50 mix by volume) containing 250 ppm of the surfactant Trem® 014 (polyhydric alcohol esters). The resulting test suspensions were then used in Tests A-F. Spraying a 40 ppm test suspension to the point of run-off on the test plants was the equivalent of a rate of 160 g/ha. Unless otherwise indicated, the rating values indicate a 40 ppm test suspension was used. The test suspension was sprayed to the point of run-off on wheat seedlings. The following day the seedlings were inoculated with a spore suspension of Septoria nodorum (the causal agent of Septoria glume blotch) and incubated in a saturated atmosphere at 20° C. for 48 h, and then moved to a growth chamber at 20° C. for 9 days, after which time visual disease ratings were made. Results for Tests A-F are given in Table A. In the Table, a rating of 100 indicates 100% disease control and a rating of 0 indicates no disease control (relative to the controls). A dash (-) indicates no test results.

[1] = tested on: Puccinia recondita f. sp. tritici; assay: Test E1: curative spray on wheat seedlings after inoculation, Puccinia recondita f. sp. tritici (wheat leaf rust), visual disease rating; format: in vivo; conditions: sprayed after inoculation (curative), 100 = 100% disease control, 0 = no disease control relative to controls
Source text: as §1, with “Wheat” for “The test suspension was sprayed to the point of run-off on wheat seedlings. The following day the”, “Puccinia recondita f. sp. tritici” for “Septoria nodorum”, “wheat leaf rust)” for “Septoria glume blotch)”, “24” for “48”, “2 days. After 2” for “9”, “the test suspension was sprayed to the point of run-off on the wheat seedlings, and then the seedlings were moved back to the growth chamber at 20° C. for 4 days. Upon removal,” for “after which time”

[2] = tested on: Puccinia recondita f. sp. tritici; assay: Test E2: preventive spray on wheat seedlings, Puccinia recondita f. sp. tritici (wheat leaf rust), visual disease rating; format: in vivo; conditions: topical, 192 h, 100 = 100% disease control, 0 = no disease control relative to controls
Source text: as §1, with “Puccinia recondita f. sp. tritici” for “Septoria nodorum”, “wheat leaf rust)” for “Septoria glume blotch)”, “24” for “48”, “7” for “9”

## Cc1cc(F)c(Nc2c(-c3ccc(F)cc3Cl)c(C)nn2C)c(Br)c1 [Compound 1, N-(2-bromo-6-fluoro-4-methylphenyl)-4-(2-chloro-4-fluorophenyl)-1,3-dimethyl-1H-pyrazol-5-amine]
Botrytis cinerea
  pest or weed control at 40 µg/mL: 100%
Alternaria solani
  Test B rating (% disease control): 99
Septoria nodorum
  pest or weed control at 40 µg/mL: 90%
[1]
  Test E1 rating (% disease control): 100
[2]
  pest or weed control at 40 µg/mL: 100%
other
  melting point: 132 to 133 °C
